Values of other authors, collected in US12516015B2 (AMALIVE LIMITED, priority 2009, dated 2026).

O=C(O)Cc1ccccc1 [phenyl acetic acid]
pKa: ~4.28
